Literature values in US20090062369A1, “USE OF SECRETORY PHOSPHOLIPASE A2 (SPLA2) INHIBITORS TO DECREASE SPLA2 LEVELS” (priority 2007, published 2009).

Tested on: sPLA2
Settings: cited from earlier work

CCc1c(C(=O)C(N)=O)c2c(OCC(=O)O)cccc2n1Cc1ccccc1 [A-001, ((3-(2-Amino-1,2-dioxoethyl)-2-ethyl-1-(phenylmethyl)-1H-indol-4-yl)oxy)acetic acid]
mode of sPLA2 inhibition: competitively inhibits sPLA2
